Measured values as given in patent publication US20090074885A1, “Reversible Hydrophobic Modification of Drugs for Improved Delivery to Cells” (Roche Madison Inc., priority 2003, published 2009).

Experiments:
[1] = tested on: cells; assay: SYTOX Green dead cell indicator after prodrug treatment; assay type: cell-based; details: following treatment with prodrug
Method: In Vitro cellular uptake of PI, RRH-PI compounds, and IV evaluated by fluorescence measurements. PI and the RRH-prodrugs were tested for cellular uptake on several cell lines which included B16 (murine melanoma), Hepa 1-6 (mouse hepatoma), SK-OV-3 (also SKOV-3, human ovarian carcinoma), OVCAR-3 (human ovarian carcinoma), Jurkat (human T-lymphocyte), 293 (human embryonic kidney), and MC38 (mouse colon carcinoma) cells. Adherent cells were plated at 2.5×10^5 cells/well on 6-well plates 24 h prior to testing. The growth media was removed from individual wells and the drug/prodrug was immediately added to the well with the mixing chamber. Final drug/prodrug concentrations were 0.150 μmol in 220 μl total volume (20 μl OS, 200 μl ITG). After 30 sec the drug solution was removed (aspirated) and 2 ml complete media was added to the cells. […] Fluorescent microscopy studies were conducted with a three laser LSM 510 confocal microscope, an Axiovert S100 fluorescent microscope, or an Axioplan2 fluorescent microscope (all Zeiss) equipped with filter sets for the rhodamine fluorescence channel (λex=BP 450/12, λem=LP 590 nm filter set) and the fluorescein fluorescent channel (λex=BP 546/90, λem=LP 515 nm filter set). […]

[2] = tested on: MC38 tumor; assay: Survival after LABI in MC38 tumor bearing mice; assay type: in vivo, C57BL mice; details: 0.150 μmol by LABI, compared to hydrolyzed C12PMMA-PI
Method: FIG. 13. Days of survival following LABI delivery of C12PMMA-PI (III) or hydrolyzed C12PMMA-PI to C57BL mice. Following three weeks of MC38 tumor development C12PMMA-PI or Hydrolyzed C12PMMA-PI (0.150 μmol in 20 μl DMSO, 200 μl ITG) were delivered by LABI. The mouse abdomen was closed 4 min after drug treatment and the animals were monitored for survival time.
In vivo antitumor effect following a liver arterial bolus injection with a RRH-PI to MC 38 tumor bearing mice. LABI was conducted as previously described in order to monitor the antitumor effect of an RRH-PI prodrug. In the experiment, III (n=11) or hydrolyzed C12PMMA-PI (n=9) were injected as previously described, the mouse abdomen was closed after drug treatment and the animals were monitored for survival time. Statistical analysis was conducted using a t-test (two tailed distribution and two sample—unequal variance, Excel).

[3] = tested on: cells; assay: Testing of mixing chamber: PI uptake in cells; assay type: cell-based; details: PI in DMF and isotonic glucose through mixing chamber
Text: Development of a Mixing Chamber. Due to the instability of the RRH-PI prodrugs in water, it was necessary to dissolve them in a small amount of pharmaceutically acceptable organic solvent (OS) and mix them with an aqueous solution immediately prior to delivery. Rapid and efficient mixing was critical for optimum delivery and minimalization of toxicity due to the organic solvent. A passive mixing chamber with colliding flows was utilized to mix the drug/RRH-prodrug (dissolved in a carrier solvent such as an organic solvent) with an aqueous solution immediately prior use. Two syringe pumps (Harvard Pumps, PHD 2000) were utilized to deliver the solutions to the mixing chamber. Typically mixtures were 1:10 by volume with 0.67 μl of PI or RRH-PI/OS solution (7.48 mM) diluted with 6.7 μl of isotonic glucose (ITG), buffer, or media per sec, for a total delivery volume of 220 μl (0.150 μmol of PI or RRH-PI) over 30 sec (final organic solvent concentration of 9.1% by vol.).
The mixing chamber (FIG. 3) was constructed from 18 G stainless steel tubing (38 mm in length) by drilling a 0.2 mm hole at a 45 degree angle in the tubing wall and then inserting 30 G stainless steel tubing. The 30 G stainless tubing was angled and advanced into the 18 G tubing so as to be centered within the larger tubing and then soldered in place. […]

## CCCCCCCCCCCCCCCCCC[Si](C)(C)Nc1ccc2c(c1)c(-c1ccccc1)[n+](CCC[N+](C)(CC)CC)c1cc(N[Si](C)(C)CCCCCCCCCCCCCCCCCC)ccc21.[I-].[I-] [II, 3,8-bis[((dimethyl)octadecylsilazyl)amine] 5-(3,3-diethyl-3-methylammoniumpropyl) 6-phenyl phenanthridinium diiodide]
[1]
  cells both PI-positive and SYTOX Green positive: less than 5%

## CCCCCCCCCCCCNC(=O)CCC(=CCC(=O)O)C(=O)Nc1ccc2c(c1)c(-c1ccccc1)[n+](CCC[N+](C)(CC)CC)c1cc(NC(=O)C(=CCC(=O)O)CCC(=O)NCCCCCCCCCCCC)ccc21.[I-].[I-] [III, 3,8-bis-[2-(2 carboxyethylidene)-4-(dodecarbamoyl)-1-oxo-butylamine] 5-(3,3-diethyl-3-methylammoniumpropyl) 6-phenyl phenanthridinium diiodide]
[2]
  survival: increased survival

## CC[N+](C)(CC)CCC[n+]1c(-c2ccccc2)c2cc(N)ccc2c2ccc(N)cc21.[I-].[I-] [PI, Propidium iodide, reference compound]
[3]
  PI uptake in cells: very little PI uptake in cells
